Measured values as given in patent US20220128542A1, “TREATMENT EFFICIENCY EVALUATION” (TX MEDIC AB, priority 2019, published 2022).

System: brain of rats subjected to severe traumatic brain injury (sTBI)
Assay: Ingenuity pathway analysis of differentially regulated genes after sTBI (canonical pathways, diseases and molecular functions; Example 4)
Parameters: species or system rat
Conditions: TBI + 5 mg/kg LMW-DS
Experimental: Pathway analysis of the differentially regulated genes was carried out using the Ingenuity pathway analysis package. The analysis was performed with special reference to pathways and molecular processes and diseases associated with neurodegenerative disease, including dementia, Alzheimer's disease, ALS, TBI and stroke, and with scarring and fibrosis, including glaucoma and normal pressure hydrocephalus (NPH) after subarachnoid haemorrhage.

[1] = 7 days after TBI, relative to control

sodium salt of dextran sulfate [LMW-DS] was tested, and the “Effect on diseases or functions annotation: Resorption of bone” value (2 days after TBI) was “Inhibited”, the “Effect on diseases or functions annotation: Secretion of molecule” value (2 days after TBI) was “Activated” and the “Effect on diseases or functions annotation: Size of body” value (2 days after TBI) was “Inhibited”. The “Effect on diseases or functions annotation: Synthesis of hormone” value (2 days after TBI) was “Inhibited”, the “Effect on diseases or functions annotation: Transcription of RNA” value (2 days after TBI) was “Inhibited” and the “Effect on diseases or functions annotation: Transport of molecule” value (2 days after TBI) was “Activated”. For the same substance, the “Effect on diseases or functions annotation: Vasculogenesis” value (2 days after TBI) was “Inhibited”, the “z score, Ingenuity canonical pathway: Acute Phase Response Signaling” value [1] was 1.89 and the “z score, Ingenuity canonical pathway: Adrenomedullin signaling pathway” value [1] was −0.632. The “z score, Ingenuity canonical pathway: Cardiac Hypertrophy Signaling” value [1] was 1, the “z score, Ingenuity canonical pathway: Colorectal Cancer Metastasis Signaling” value [1] was −0.378 and the “z score, Ingenuity canonical pathway: Dendritic Cell Maturation” value [1] was 1.897. For the same substance, the “z score, Ingenuity canonical pathway: ERK5 Signaling” value [1] was −0.447, the “z score, Ingenuity canonical pathway: ERK/MAPK Signaling” value [1] was 1 and the “z score, Ingenuity canonical pathway: Endothelin-1 Signaling” value [1] was 1.633. For the same substance, the “z score, Ingenuity canonical pathway: Fcγ Receptor-mediated Phagocytosis in Macrophages and Monocytes” value [1] was 2.236, the “z score, Ingenuity canonical pathway: GNRH Signaling” value [1] was 2 and the “z score, Ingenuity canonical pathway: HMGB1 Signaling” value [1] was 1.134. The “z score, Ingenuity canonical pathway: IL-1 Signaling” value [1] was 1, the “z score, Ingenuity canonical pathway: IL-6 Signaling” value [1] was 1 and the “z score, Ingenuity canonical pathway: IL-8 Signaling” value [1] was 2.646. For the same substance, the “z score, Ingenuity canonical pathway: ILK Signaling” value [1] was 1.89, the “z score, Ingenuity canonical pathway: Leukocyte Extravasation Signaling” value [1] was 1.342 and the “z score, Ingenuity canonical pathway: Neuroinflammation Signaling Pathway” value [1] was 1.941. The “z score, Ingenuity canonical pathway: Osteoarthritis Pathway” value [1] was -1, the “z score, Ingenuity canonical pathway: PI3K Signaling in B Lymphocytes” value [1] was 1.89 and the “z score, Ingenuity canonical pathway: PKCθ Signaling in T Lymphocytes” value [1] was 2. For the same substance, the “z score, Ingenuity canonical pathway: PPAR Signaling” value [1] was −1.342, the “z score, Ingenuity canonical pathway: Phospholipase C Signaling” value [1] was 1 and the “z score, Ingenuity canonical pathway: Production of Nitric Oxide and Reactive Oxygen Species in Macrophages” value [1] was 2.236. The “z score, Ingenuity canonical pathway: Protein Kinase A Signaling” value [1] was −1.342, the “z score, Ingenuity canonical pathway: Role of NFAT in Regulation of the Immune Response” value [1] was 2.53 and the “z score, Ingenuity canonical pathway: Signaling by Rho Family GTPases” value [1] was 1. The “z score, Ingenuity canonical pathway: Synaptic Long Term Depression” value [1] was 1, the “z score, Ingenuity canonical pathway: Wnt/β-catenin Signaling” value [1] was −1 and the “z score, Ingenuity canonical pathway: cAMP-mediated signaling” value [1] was −2. The “z score, Ingenuity canonical pathway: mTOR Signaling” value [1] was 1, the “Diseases or functions annotation: Abdominal adenocarcinoma” value (7 days after TBI) was “Activated” and the “Diseases or functions annotation: Abdominal cancer” value (7 days after TBI) was “Inhibited”. The “Diseases or functions annotation: Abdominal carcinoma” value (7 days after TBI) was “Inhibited”, the “Diseases or functions annotation: Abdominal neoplasm” value (7 days after TBI) was “Activated” and the “Diseases or functions annotation: Adenocarcinoma” value (7 days after TBI) was “Inhibited”. For the same substance, the “Diseases or functions annotation: Angiogenesis” value (7 days after TBI) was “Activated”, the “Diseases or functions annotation: Apoptosis” value (7 days after TBI) was “Inhibited” and the “Diseases or functions annotation: Apoptosis of tumor cell lines” value (7 days after TBI) was “Inhibited”. The “Diseases or functions annotation: Bleeding” value (7 days after TBI) was “Inhibited”, the “Diseases or functions annotation: Breast or colorectal cancer” value (7 days after TBI) was “Inhibited” and the “Diseases or functions annotation: Breast or ovarian cancer” value (7 days after TBI) was “Inhibited”. For the same substance, the “Diseases or functions annotation: Breast or pancreatic cancer” value (7 days after TBI) was “Inhibited”, the “Diseases or functions annotation: Cancer” value (7 days after TBI) was “Activated” and the “Diseases or functions annotation: Cancer of cells” value (7 days after TBI) was “Activated”. The “Diseases or functions annotation: Cancer of secretory structure” value (7 days after TBI) was “Activated”, the “Diseases or functions annotation: Carcinoma” value (7 days after TBI) was “Inhibited” and the “Diseases or functions annotation: Cell cycle progression” value (7 days after TBI) was “Activated”. For the same substance, the “Diseases or functions annotation: Cell death” value (7 days after TBI) was “Activated”, the “Diseases or functions annotation: Cell death of epithelial cells” value (7 days after TBI) was “Activated” and the “Diseases or functions annotation: Cell death of tumor cell lines” value (7 days after TBI) was “Inhibited”. For the same substance, the “Diseases or functions annotation: Cell movement” value (7 days after TBI) was “Activated”, the “Diseases or functions annotation: Cell movement of endothelial cells” value (7 days after TBI) was “Activated” and the “Diseases or functions annotation: Cell movement of myeloid cells” value (7 days after TBI) was “Activated”. For the same substance, the “Diseases or functions annotation: Cell movement of tumor cell lines” value (7 days after TBI) was “Activated”, the “Diseases or functions annotation: Cell survival” value (7 days after TBI) was “Activated” and the “Diseases or functions annotation: Cell viability” value (7 days after TBI) was “Activated”. For the same substance, the “Diseases or functions annotation: Cell viability of tumor cell lines” value (7 days after TBI) was “Activated”, the “Diseases or functions annotation: Cellular homeostasis” value (7 days after TBI) was “Activated” and the “Diseases or functions annotation: Chemotaxis” value (7 days after TBI) was “Activated”. For the same substance, the “Diseases or functions annotation: Concentration of lipid” value (7 days after TBI) was “Inhibited”, the “Diseases or functions annotation: Development of body axis” value (7 days after TBI) was “Activated” and the “Diseases or functions annotation: Development of body trunk” value (7 days after TBI) was “Activated”. For the same substance, the “Diseases or functions annotation: Development of connective tissue cells” value (7 days after TBI) was “Activated”, the “Diseases or functions annotation: Development of epithelial tissue” value (7 days after TBI) was “Activated” and the “Diseases or functions annotation: Development of genitourinary system” value (7 days after TBI) was “Inhibited”. The “Diseases or functions annotation: Development of head” value (7 days after TBI) was “Activated”, the “Diseases or functions annotation: Development of neurons” value (7 days after TBI) was “Activated” and the “Diseases or functions annotation: Development of sensory organ” value (7 days after TBI) was “Activated”. The “Diseases or functions annotation: Development of vasculature” value (7 days after TBI) was “Activated”, the “Diseases or functions annotation: Differentiation of bone” value (7 days after TBI) was “Activated” and the “Diseases or functions annotation: Differentiation of bone cells” value (7 days after TBI) was “Activated”. The “Diseases or functions annotation: Differentiation of connective tissue cells” value (7 days after TBI) was “Activated”, the “Diseases or functions annotation: Digestive organ tumor” value (7 days after TBI) was “Inhibited” and the “Diseases or functions annotation: Digestive system cancer” value (7 days after TBI) was “Inhibited”. For the same substance, the “Diseases or functions annotation: Endocrine gland tumor” value (7 days after TBI) was “Inhibited”, the “Diseases or functions annotation: Expression of RNA” value (7 days after TBI) was “Activated” and the “Diseases or functions annotation: Extracranial solid tumor” value (7 days after TBI) was “Activated”. For the same substance, the “Diseases or functions annotation: Failure of kidney” value (7 days after TBI) was “Activated”, the “Diseases or functions annotation: Formation of eye” value (7 days after TBI) was “Activated” and the “Diseases or functions annotation: Gastrointestinal tumor” value (7 days after TBI) was “Inhibited”. For the same substance, the “Diseases or functions annotation: Genital tumor” value (7 days after TBI) was “Activated”, the “Diseases or functions annotation: Genitourinary carcinoma” value (7 days after TBI) was “Activated” and the “Diseases or functions annotation: Genitourinary tumor” value (7 days after TBI) was “Activated”. The “Diseases or functions annotation: Glucose metabolism disorder” value (7 days after TBI) was “Activated”, the “Diseases or functions annotation: Growth of connective tissue” value (7 days after TBI) was “Inhibited” and the “Diseases or functions annotation: Growth of epithelial tissue” value (7 days after TBI) was “Inhibited”. The “Diseases or functions annotation: Growth of tumor” value (7 days after TBI) was “Activated”, the “Diseases or functions annotation: Head and neck cancer” value (7 days after TBI) was “Inhibited” and the “Diseases or functions annotation: Head and neck tumor” value (7 days after TBI) was “Inhibited”. For the same substance, the “Diseases or functions annotation: Hematologic cancer” value (7 days after TBI) was “Inhibited”, the “Diseases or functions annotation: Hematologic cancer of cells” value (7 days after TBI) was “Inhibited” and the “Diseases or functions annotation: Hematopoietic neoplasm” value (7 days after TBI) was “Inhibited”. For the same substance, the “Diseases or functions annotation: Intestinal tumor” value (7 days after TBI) was “Inhibited”, the “Diseases or functions annotation: Invasion of cells” value (7 days after TBI) was “Activated” and the “Diseases or functions annotation: Leukocyte migration” value (7 days after TBI) was “Activated”. The “Diseases or functions annotation: Lymphatic system tumor” value (7 days after TBI) was “Inhibited”, the “Diseases or functions annotation: Lymphocytic cancer” value (7 days after TBI) was “Inhibited” and the “Diseases or functions annotation: Lymphocytic neoplasm” value (7 days after TBI) was “Inhibited”. For the same substance, the “Diseases or functions annotation: Lymphoid cancer” value (7 days after TBI) was “Inhibited”, the “Diseases or functions annotation: Lymphoma” value (7 days after TBI) was “Inhibited” and the “Diseases or functions annotation: Lymphoproliferative disorder” value (7 days after TBI) was “Inhibited”. The “Diseases or functions annotation: Lymphoreticular neoplasm” value (7 days after TBI) was “Inhibited”, the “Diseases or functions annotation: Malignant genitourinary solid tumor” value (7 days after TBI) was “Activated” and the “Diseases or functions annotation: Malignant solid tumor” value (7 days after TBI) was “Activated”. The “Diseases or functions annotation: Microtubule dynamics” value (7 days after TBI) was “Activated”, the “Diseases or functions annotation: Migration of cells” value (7 days after TBI) was “Activated” and the “Diseases or functions annotation: Migration of endothelial cells” value (7 days after TBI) was “Activated”. For the same substance, the “Diseases or functions annotation: Morbidity or mortality” value (7 days after TBI) was “Inhibited”, the “Diseases or functions annotation: Necrosis” value (7 days after TBI) was “Activated” and the “Diseases or functions annotation: Necrosis of epithelial tissue” value (7 days after TBI) was “Activated”. For the same substance, the “Diseases or functions annotation: Neoplasia of cells” value (7 days after TBI) was “Activated”, the “Diseases or functions annotation: Neoplasia of leukocytes” value (7 days after TBI) was “Inhibited” and the “Diseases or functions annotation: Non-hematological solid tumor” value (7 days after TBI) was “Activated”. The “Diseases or functions annotation: Non-melanoma solid tumor” value (7 days after TBI) was “Activated”, the “Diseases or functions annotation: Nonhematologic malignant neoplasm” value (7 days after TBI) was “Inhibited” and the “Diseases or functions annotation: Obesity” value (7 days after TBI) was “Activated”. For the same substance, the “Diseases or functions annotation: Organismal death” value (7 days after TBI) was “Inhibited”, the “Diseases or functions annotation: Organization of cytoskeleton” value (7 days after TBI) was “Activated” and the “Diseases or functions annotation: Pelvic tumor” value (7 days after TBI) was “Activated”. For the same substance, the “Diseases or functions annotation: Peripheral vascular disease” value (7 days after TBI) was “Activated”, the “Diseases or functions annotation: Proliferation of connective tissue cells” value (7 days after TBI) was “Inhibited” and the “Diseases or functions annotation: Proliferation of epithelial cells” value (7 days after TBI) was “Inhibited”. For the same substance, the “Diseases or functions annotation: Quantity of cells” value (7 days after TBI) was “Activated”, the “Diseases or functions annotation: Quantity of connective tissue” value (7 days after TBI) was “Activated” and the “Diseases or functions annotation: Renal impairment” value (7 days after TBI) was “Activated”. The “Diseases or functions annotation: Secretion of molecule” value (7 days after TBI) was “Activated”, the “Diseases or functions annotation: Sensory system development” value (7 days after TBI) was “Inhibited” and the “Diseases or functions annotation: Size of body” value (7 days after TBI) was “Activated”. The “Diseases or functions annotation: Skin lesion” value (7 days after TBI) was “Inhibited”, the “Diseases or functions annotation: Skin tumor” value (7 days after TBI) was “Inhibited” and the “Diseases or functions annotation: Solid tumor” value (7 days after TBI) was “Activated”. The “Diseases or functions annotation: Synthesis of lipid” value (7 days after TBI) was “Activated”, the “Diseases or functions annotation: Transcription” value (7 days after TBI) was “Activated” and the “Diseases or functions annotation: Transcription of RNA” value (7 days after TBI) was “Activated”. The “Diseases or functions annotation: Transport of molecule” value (7 days after TBI) was “Activated”, the “Diseases or functions annotation: Tumorigenesis of tissue” value (7 days after TBI) was “Inhibited” and the “Diseases or functions annotation: Vasculogenesis” value (7 days after TBI) was “Activated”.
